Key:
[1] = test system: cerebellar neurons on purified CNS myelin; test: Neurite outgrowth of cerebellar neurons on purified CNS myelin substrate; assay type: cell-based
Method: Isolated cerebellar neurons at a density of 20,000 neurons per well were plated onto a substrate of purified CNS myelin and cultured overnight before being fixed and immunostained for GAP43. The length of the longest neurite per neuron from 180-200 neurons was measured and results are the average length+/−SEM. Where indicated, dibutyryl cAMP (dbcA) at 1 mM in the presence or absence of the inhibitor of transcription, 5,6-dichloro-1-b-D-ribofuranosylbenzimidazole (DRB) at 5 μM, was added to each culture. (B) Cerebellar neurons (1×10^6) were plated onto poly-L-lysine and cultured overnight with brain-derived neurotrophic factor (BDNF) at 200 ng/ml, (termed priming) in the presence or absence of DRB at 5 μM, before being transferred to the CNS myelin substrate.
The longest neurite from at least 180-200 neurons were measured. Results are shown as the mean neurite length+/−SEM.
(§1) After further incubation, neurons were fixed and immunostained for GAP43. The longest neurite from each neuron for 180-200 neurons were measured. Results are shown as the mean neurite length+/−SEM.
(§2) Primed neurons were transferred to either MAG-expressing or control CHO cells (A) or a substrate of CNS myelin (B) for further incubation. Neurons were then fixed and immunostained for GAP43. The longest neurite from each neuron was measured for 180-200 neurons.
Trypsinization was stopped by addition of 5 ml DMEM containing 10% fetal calf serum (FCS) and cells were centrifuged at 800 rpm for 6 min. […] The ganglia were triturated with a fire-polished Pasteur pipette. […] Cells were counted with a Coulter counter.
The neurite outgrowth assay was carried out by adding 5×10^4 neurons to the immobilized myelin substrate or 2×10^4 neurons to the CHO cell monolayers. Briefly, confluent monolayers of control and MAG-expressing CHO cells were established over a 24-hour (h) period in individual chambers of an 8-well tissue culture slide (Lab-Tek). […] Culture medium was SATO containing 2% FCS.
GAP43 antibody was detected by staining with Texas Red and arginase antibody was detected with anti-biotin secondary antibody followed by Texas Red-conjugated streptavidin.
After periods of time as indicated, the co-cultures were fixed for 30 min with 4% paraformaldehyde and permeabilized with ice-cold methanol for 2 min. […] After three more washes, the slides were mounted in Permfluor (Baxter) and viewed with a Zeiss fluorescent microscope. The length of the longest neurite for each GAP43-positive neuron was determined using the Biological Detection System image analysis program (Pittsburgh).

[2] = test system: cerebellar neurons on MAG-expressing CHO cells; test: Neurite outgrowth of cerebellar neurons on MAG-expressing or control CHO cells; assay type: cell-based
Method: FIG. 2: Improved Axonal Growth on MAG Induced By Elevating cAMP Levels is Transcription-Dependent. (A) Isolated cerebellar neurons at a density of 20,000 neurons per well were plated onto a monolayer of either MAG-expressing Chinese hamster ovary (CHO) cells (striped bars) or control CHO cells (black bars) and cultured overnight before being fixed and immunostained for GAP43 to visualize the neurites. The length of the longest neurite per neuron, from 180-200 neurons, was measured and results are the average length+/−SEM. Where indicated, dibutyryl cAMP (dbcA) at 1 mM in the presence or absence of the inhibitor of transcription, 5,6-dichloro-1-b-D-ribofuranosylbenzimidazole (DRB) at 5 μM, was added to each culture. (B) Cerebellar neurons (1×10^6) were plated onto poly-L-lysine and cultured overnight with brain-derived neurotrophic factor (BDNF) at 200 ng/ml, (termed priming) in the presence or absence of DRB at 5 μM, before being transferred to the CHO cell monolayers.
FIG. 6: An Ornithine Decarboxylase (ODC) Inhibitor Abrogates the Blocking Effect of dbcAMP on the Inhibition of Axonal Outgrowth by MAG and Myelin. […] The longest neurite from at least 180-200 neurons were measured. Results are shown as the mean neurite length+/−SEM.
as §1
FIG. 8: An Inhibitor Of ODC Blocks The Priming Effects Of GDNF On The Inhibition By MAG. […] After further incubation, neurons were fixed and immunostained for GAP43. The longest neurite from each neuron for 180-200 neurons were measured. Results are shown as the mean neurite length±SEM.
as §2, with “neurons. Results are shown as the percentage of control. […]” for “neurons.”
Neurons were isolated essentially as described in Doherty at al., Nature, 343, pp. 464-66 (1990); Neuron, 5, pp. 209-19 (1990); and Kleitman at al., Culturing Nerve Cells, pp. 337-78, MIT Press, Cambridge, Mass./London, England (G. Banker and K Goslin, Eds.) (1991). Briefly, for animals up to nine days of age, the cerebellum, from two animals were removed and combined in 5 ml of 0.025% trypsin in PBS, triturated, and incubated for a further 10 minutes (min.) at 37° C. Trypsinization was stopped by addition of 5 ml DMEM containing 10% fetal calf serum (FCS) and cells were centrifuged at 800 rpm for 6 min. […] For older DRG neurons, ganglia were removed from two animals and incubated in 5 ml of Sat medium containing 0.025% trypsin and 0.15% collagenase type I (Worthington) for 30 min. at 37° C. The ganglia were triturated with a fire-polished Pasteur pipette. Trypsinization was stopped by adding 5 ml of DMEM containing 10% FCS, centrifuged at 800 rpm for 6 min, and resuspended in 2 ml of SAT (DeBellard et al., 1996). Cells were counted with a Coulter counter.
Chinese hamster ovary (CHO) cells deficient in the dihydrofolate reductase (dhfr) gene (Urlaub and Chasin, Proc. Natl, Acad, Sci. 77, pp. 4216-20 (1980)) were transfected with a MAG-cDNA expression plasmid with the dhfr gene and the L-MAG cDNA, cells with multiple copies of dbfr were selected by growing in increasing concentrations of methotrexate, and the expression of MAG by individual transfected CHO cell lines characterized as described in Mukhopadhyay et al., Neuron, 13, pp. 757-67 (1994), which is incorporated herein by reference. The MAG-expressing transfected CHO cell line) (“CHO-MAG2”) in that publication was deposited on Jun. 27, 1996 with the American Type Culture Collection (ATCC) (Rockville, Md.) according to the provisions of the Budapest Treaty, and was assigned the ATCC accession number designated: ATCC CRL-12145. […]

arginase = target: T1, arginase (Rattus norvegicus, UniProt P07824); details: cited from earlier work
T1 sequence (P07824 1-323): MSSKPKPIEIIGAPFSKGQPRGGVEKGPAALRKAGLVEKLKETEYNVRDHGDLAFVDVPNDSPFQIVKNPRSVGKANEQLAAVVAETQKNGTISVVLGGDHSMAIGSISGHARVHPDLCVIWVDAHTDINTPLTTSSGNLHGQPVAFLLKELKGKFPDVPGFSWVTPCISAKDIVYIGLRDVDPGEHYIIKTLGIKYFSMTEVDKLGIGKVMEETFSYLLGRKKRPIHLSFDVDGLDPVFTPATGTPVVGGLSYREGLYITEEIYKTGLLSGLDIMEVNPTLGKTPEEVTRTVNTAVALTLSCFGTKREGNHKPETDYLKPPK

[3] = test system: DRG neurons on MAG-expressing CHO cells; test: Neurite outgrowth of DRG neurons on MAG-expressing or control CHO cells; assay type: cell-based; details: P0-1 DRG neurons, DFMO 1 mM
Method: After overnight incubation, neurons were fixed and immunostained for GAP 43. The longest neurite from each of 120-150 DRG neurons were measured. Results are shown as the mean neurite length+/−SEM.
FIG. 14: Over-Expression Of Arginase In Older DRG Neurons By Adenovirus-Mediated Gene Transfer Is Sufficient To Overcome Inhibition By MAG. Postnatal day 5 DRG neurons (0.5×10^6) were plated in 24-well plates and infected with adenovirus containing ArgI-GFP or GFP alone. Alter overnight culture, infected neurons were transferred to MAG-expressing (stippled bars) or control (black bars) CHO cells for neurite outgrowth. Neurons were fixed and immunostained for GAP43. The neurons with double staining of GAP43 and GFP were considered as positively infected. The length of the longest neurite per neuron was measured for 120-150 positively infected neurons. Results are shown as the average neurite length+/−SEM of GFP-infected (GFP) or ArgI-infected (ArgI) neurons grown on MAG.
Neurons were isolated essentially as described in Doherty at al., Nature, 343, pp. 464-66 (1990); Neuron, 5, pp. 209-19 (1990); and Kleitman at al., Culturing Nerve Cells, pp. 337-78, MIT Press, Cambridge, Mass./London, England (G. Banker and K Goslin, Eds.) (1991). […] Cells were counted with a Coulter counter. […]

[4] = putrescine in the culture, no priming

In the case of `NCCCCN` [putrescine], the “putrescine concentration at which the blocking effect on myelin saturates” value ([1]; overnight priming) is reported as “about 50 μM”, the “increase in axonal outgrowth on CNS myelin” value ([1]; priming with putrescine at 10 μM) is reported as “two-fold” and the “block of inhibition of axonal growth by myelin, putrescine added without priming” value [1, 4] is reported as “only partially blocks”. For the same compound, the “putrescine dose above which the blocking effect on MAG saturates” value ([2]; overnight priming) was “higher than 25 μM”, the “effect of putrescine on BDNF priming blocked by DFMO (MAG)” value ([2]; putrescine (10 mM as printed elsewhere in the source) with DFMO 1 mM and BDNF during priming) was “restored the priming effect of BDNF” and the “block of inhibition of axonal growth by MAG, putrescine added without priming” value [2, 4] was “only partially blocks”.
In the case of `N[C@@H](CCCCB(O)O)C(=O)O` [ABH, 2(S)-amino-6-boronohexanoic acid], the “arginase inhibitor potency, in words” value (arginase) is given as “most potent inhibitor of arginase identified to date”.
With `OC[C@H]1O[C@@H](n2cnc3cc(Cl)c(Cl)cc32)[C@H](O)[C@@H]1O` [DRB, 5,6-dichloro-1-b-D-ribofuranosylbenzimidazole] the “effect of transcription inhibitor on the dbcAMP/BDNF block of MAG inhibition” value ([2]; DRB 5 μM with dbcAMP 1 mM or BDNF 200 ng/ml priming) was “neither dbcAMP nor BDNF block inhibition”.
For `Cl.NCCCC(N)(C(=O)O)C(F)F` (racemic) [DFMO, DL-a-difluoromethyl-ornithine hydrochloride], the “effect alone on neurite growth on control CHO cells, young DRG neurons” value [3] was “no effect”, the “effect on promotion of axonal growth by MAG in young DRG neurons” value ([3]; overnight) was “completely abolished” and the “effect on the positive (priming) effect of BDNF on axonal growth in the presence of MAG” value ([2]; DFMO 1 mM during overnight priming with BDNF 200 ng/ml) was “completely abrogated”. The “effect on the positive (priming) effect of GDNF on axonal growth in the presence of MAG” value ([2]; DFMO 1 mM during overnight priming with GDNF 200 ng/ml) was “completely abrogated”, the “effect on the dbcAMP block of inhibition by MAG” value ([2]; DFMO 1 mM with dbcAMP 1 mM) was “lost” and the “effect alone on neurite growth on control CHO cells” value ([2]; DFMO 1 mM, control CHO cells) was “no significant effect”. For the same compound, the “effect alone on inhibition by MAG” value ([2]; DFMO 1 mM, no dbcAMP) was “no significant effect”.

From patent publication US8673594B2, “Methods for stimulating nervous system regeneration and repair by regulating arginase I and polyamine synthesis” (Research Foundation of City University of New York, priority 2000, dated 2014)
